Activity calls are given as the source filed them. No cut-off for these calls is given here.
What was measured:
Format in all cases: functional
Aspergillus flavus [1] = assay: Antimicrobial activity against Aspergillus flavus at 500 ppm after 72 to 96 hr by disk diffusion method; conditions: read-out: IZ
Rhizopus [2] = assay: Antimicrobial activity against Rhizopus at 500 ppm after 72 to 96 hr by disk diffusion method; conditions: read-out: IZ
Streptococcus [3] = assay: Antimicrobial activity against beta-hemolytic Streptococcus at 200 ppm after 24 hr by disk diffusion method; conditions: read-out: IZ
Nannizzia gypsea [4] = assay: Antimicrobial activity against Microsporum gypseum at 100 ppm after 72 to 96 hr by disk diffusion method
Staphylococcus aureus [5] = assay: Antimicrobial activity against Staphylococcus aureus at 100 ppm after 24 hr by disk diffusion method; conditions: for zone of inhibition at 100 ppm: read-out: IZ
Streptococcus [6] = assay: Antimicrobial activity against beta-hemolytic Streptococcus at 100 ppm after 24 hr by disk diffusion method; conditions: for zone of inhibition at 100 ppm: read-out: IZ
Nannizzia gypsea [7] = assay: Antimicrobial activity against Microsporum gypseum at 200 ppm after 72 to 96 hr by disk diffusion method; conditions: read-out: IZ
Salmonella typhi [8] = assay: Antimicrobial activity against Salmonella enterica subsp. enterica serovar Typhi at 200 ppm after 24 hr by disk diffusion method; conditions: read-out: IZ
Escherichia coli [9] = assay: Antimicrobial activity against Escherichia coli at 200 ppm after 24 hr by disk diffusion method; conditions: read-out: IZ
Streptococcus [10] = assay: Antimicrobial activity against beta-hemolytic Streptococcus at 500 ppm after 24 hr by disk diffusion method; conditions: read-out: IZ
Vibrio cholerae [11] = assay: Antimicrobial activity against Vibrio cholerae at 200 ppm after 24 hr by disk diffusion method; conditions: read-out: IZ
Mucor [12] = assay: Antimicrobial activity against Mucor at 500 ppm after 72 to 96 hr by disk diffusion method; conditions: read-out: IZ
Shigella flexneri [13] = assay: Antimicrobial activity against Shigella flexneri at 200 ppm after 24 hr by disk diffusion method; conditions: read-out: IZ
Shigella flexneri [14] = assay: Antimicrobial activity against Shigella flexneri at 100 ppm after 24 hr by disk diffusion method
Vibrio cholerae [15] = assay: Antimicrobial activity against Vibrio cholerae at 500 ppm after 24 hr by disk diffusion method; conditions: read-out: IZ
Rhizopus [16] = assay: Antimicrobial activity against Rhizopus at 100 ppm after 72 to 96 hr by disk diffusion method
Pseudomonas [17] = assay: Antimicrobial activity against Pseudomonas at 200 ppm after 24 hr by disk diffusion method; conditions: read-out: IZ
Salmonella typhi [18] = assay: Antimicrobial activity against Salmonella enterica subsp. enterica serovar Typhi at 100 ppm after 24 hr by disk diffusion method
Aspergillus flavus [19] = assay: Antimicrobial activity against Aspergillus flavus at 200 ppm after 72 to 96 hr by disk diffusion method; conditions: read-out: IZ
Staphylococcus aureus [20] = assay: Antimicrobial activity against Staphylococcus aureus at 200 ppm after 24 hr by disk diffusion method; conditions: read-out: IZ
Salmonella typhi [21] = assay: Antimicrobial activity against Salmonella enterica subsp. enterica serovar Typhi at 500 ppm after 24 hr by disk diffusion method; conditions: read-out: IZ
Nannizzia gypsea [22] = assay: Antimicrobial activity against Microsporum gypseum at 500 ppm after 72 to 96 hr by disk diffusion method; conditions: read-out: IZ
Staphylococcus aureus [23] = assay: Antimicrobial activity against Staphylococcus aureus at 500 ppm after 24 hr by disk diffusion method; conditions: read-out: IZ
Klebsiella pneumoniae [24] = assay: Antimicrobial activity against Klebsiella pneumoniae at 200 ppm after 24 hr by disk diffusion method; conditions: read-out: IZ
Mucor [25] = assay: Antimicrobial activity against Mucor at 200 ppm after 72 to 96 hr by disk diffusion method; conditions: read-out: IZ
Escherichia coli [26] = assay: Antimicrobial activity against Escherichia coli at 100 ppm after 24 hr by disk diffusion method
Rhizopus [27] = assay: Antimicrobial activity against Rhizopus at 200 ppm after 72 to 96 hr by disk diffusion method; conditions: read-out: IZ
Klebsiella pneumoniae [28] = assay: Antimicrobial activity against Klebsiella pneumoniae at 500 ppm after 24 hr by disk diffusion method; conditions: read-out: IZ
Vibrio cholerae [29] = assay: Antimicrobial activity against Vibrio cholerae at 100 ppm after 24 hr by disk diffusion method
Pseudomonas [30] = assay: Antimicrobial activity against Pseudomonas at 100 ppm after 24 hr by disk diffusion method; conditions: for zone of inhibition at 100 ppm: read-out: IZ
Pseudomonas [31] = assay: Antimicrobial activity against Pseudomonas at 500 ppm after 24 hr by disk diffusion method; conditions: read-out: IZ
Shigella flexneri [32] = assay: Antimicrobial activity against Shigella flexneri at 500 ppm after 24 hr by disk diffusion method; conditions: read-out: IZ
Mucor [33] = assay: Antimicrobial activity against Mucor at 100 ppm after 72 to 96 hr by disk diffusion method
Escherichia coli [34] = assay: Antimicrobial activity against Escherichia coli at 500 ppm after 24 hr by disk diffusion method; conditions: read-out: IZ
Aspergillus flavus [35] = assay: Antimicrobial activity against Aspergillus flavus at 100 ppm after 72 to 96 hr by disk diffusion method; conditions: read-out: IZ
Klebsiella pneumoniae [36] = assay: Antimicrobial activity against Klebsiella pneumoniae at 100 ppm after 24 hr by disk diffusion method

With `COc1ccc(/C=C/C(=O)c2ccc(N3CCOCC3)cc2)cc1` the zone of inhibition at 500 ppm (Aspergillus flavus [1]) was 17 mm, the zone of inhibition at 500 ppm (Rhizopus [2]) was 17 mm and the zone of inhibition at 200 ppm (Streptococcus [3]) was 22 mm. It also gave a zone of inhibition at 100 ppm (Nannizzia gypsea [4]; read-out: IZ) of 12 mm, a zone of inhibition at 100 ppm (Staphylococcus aureus [5]) of 12 mm and a zone of inhibition at 100 ppm (Streptococcus [6]) of 12 mm. It also gave a zone of inhibition at 200 ppm (Nannizzia gypsea [7]) of 12 mm, a zone of inhibition at 200 ppm (Salmonella typhi [8]) of 12 mm and a zone of inhibition at 200 ppm (Escherichia coli [9]) of 12 mm. It also gave a zone of inhibition at 500 ppm (Streptococcus [10]) of 30 mm, a zone of inhibition at 200 ppm (Vibrio cholerae [11]) of 12 mm and a zone of inhibition at 500 ppm (Mucor [12]) of 17 mm. For the same compound, the zone of inhibition at 200 ppm (Shigella flexneri [13]) was 17 mm, the “inhibition zone (IZ)” value (Shigella flexneri [14]) was “inactive” and the zone of inhibition at 500 ppm (Vibrio cholerae [15]) was 17 mm. For the same compound, the “inhibition zone (IZ)” value (Rhizopus [16]) was “inactive”, the zone of inhibition at 200 ppm (Pseudomonas [17]) was 22 mm and the “inhibition zone (IZ)” value (Salmonella typhi [18]) was “inactive”. The zone of inhibition at 200 ppm (Aspergillus flavus [19]) was 12 mm, the zone of inhibition at 200 ppm (Staphylococcus aureus [20]) was 22 mm and the zone of inhibition at 500 ppm (Salmonella typhi [21]) was 17 mm. The zone of inhibition at 500 ppm (Nannizzia gypsea [22]) was 17 mm, the zone of inhibition at 500 ppm (Staphylococcus aureus [23]) was 30 mm and the zone of inhibition at 200 ppm (Klebsiella pneumoniae [24]) was 17 mm. The zone of inhibition at 200 ppm (Mucor [25]) was 12 mm, the “inhibition zone (IZ)” value (Escherichia coli [26]) was “inactive” and the zone of inhibition at 200 ppm (Rhizopus [27]) was 12 mm. The zone of inhibition at 500 ppm (Klebsiella pneumoniae [28]) was 30 mm, the “inhibition zone (IZ)” value (Vibrio cholerae [29]) was “inactive” and the zone of inhibition at 100 ppm (Pseudomonas [30]) was 12 mm. The zone of inhibition at 500 ppm (Pseudomonas [31]) was 30 mm, the zone of inhibition at 500 ppm (Shigella flexneri [32]) was 22 mm and the “inhibition zone (IZ)” value (Mucor [33]) was “inactive”. For the same compound, the zone of inhibition at 500 ppm (Escherichia coli [34]) was 17 mm, the zone of inhibition at 100 ppm (Aspergillus flavus [35]) was 12 mm and the “inhibition zone (IZ)” value (Klebsiella pneumoniae [36]) was “inactive”.
In the case of `O=C(/C=C/c1ccc(F)cc1)c1ccc(N2CCOCC2)cc1`, the zone of inhibition at 500 ppm (Aspergillus flavus [1]) was 30 mm, the zone of inhibition at 500 ppm (Rhizopus [2]) was 22 mm and the zone of inhibition at 200 ppm (Streptococcus [3]) was 17 mm. For the same compound, the “inhibition zone (IZ)” value (Nannizzia gypsea [4]) was “inactive”, the “inhibition zone (IZ)” value (Staphylococcus aureus [5]) was “inactive” and the “inhibition zone (IZ)” value (Streptococcus [6]) was “inactive”. The zone of inhibition at 200 ppm (Nannizzia gypsea [7]) was 17 mm, the zone of inhibition at 200 ppm (Salmonella typhi [8]) was 17 mm and the zone of inhibition at 200 ppm (Escherichia coli [9]) was 17 mm. The zone of inhibition at 500 ppm (Streptococcus [10]) was 22 mm, the zone of inhibition at 200 ppm (Vibrio cholerae [11]) was 17 mm and the zone of inhibition at 500 ppm (Mucor [12]) was 22 mm. The zone of inhibition at 200 ppm (Shigella flexneri [13]) was 17 mm, the “inhibition zone (IZ)” value (Shigella flexneri [14]) was “inactive” and the zone of inhibition at 500 ppm (Vibrio cholerae [15]) was 17 mm. For the same compound, the “inhibition zone (IZ)” value (Rhizopus [16]) was “inactive”, the zone of inhibition at 200 ppm (Pseudomonas [17]) was 22 mm and the zone of inhibition at 100 ppm (Salmonella typhi [18]; read-out: IZ) was 12 mm. The zone of inhibition at 200 ppm (Aspergillus flavus [19]) was 17 mm, the zone of inhibition at 200 ppm (Staphylococcus aureus [20]) was 17 mm and the zone of inhibition at 500 ppm (Salmonella typhi [21]) was 17 mm. The zone of inhibition at 500 ppm (Nannizzia gypsea [22]) was 30 mm, the zone of inhibition at 500 ppm (Staphylococcus aureus [23]) was 22 mm and the zone of inhibition at 200 ppm (Klebsiella pneumoniae [24]) was 12 mm. The zone of inhibition at 200 ppm (Mucor [25]) was 17 mm, the “inhibition zone (IZ)” value (Escherichia coli [26]) was “inactive” and the zone of inhibition at 200 ppm (Rhizopus [27]) was 17 mm. The zone of inhibition at 500 ppm (Klebsiella pneumoniae [28]) was 22 mm, the zone of inhibition at 100 ppm (Vibrio cholerae [29]; read-out: IZ) was 12 mm and the “inhibition zone (IZ)” value (Pseudomonas [30]) was “inactive”. For the same compound, the zone of inhibition at 500 ppm (Pseudomonas [31]) was 30 mm, the zone of inhibition at 500 ppm (Shigella flexneri [32]) was 22 mm and the “inhibition zone (IZ)” value (Mucor [33]) was “inactive”. The zone of inhibition at 500 ppm (Escherichia coli [34]) was 17 mm, the zone of inhibition at 100 ppm (Aspergillus flavus [35]) was 12 mm and the “inhibition zone (IZ)” value (Klebsiella pneumoniae [36]) was “inactive”.
For `O=C(/C=C/c1ccccc1)c1ccc(N2CCOCC2)cc1`, the zone of inhibition at 500 ppm (Aspergillus flavus [1]) was 17 mm, the zone of inhibition at 500 ppm (Rhizopus [2]) was 17 mm and the zone of inhibition at 200 ppm (Streptococcus [3]) was 17 mm. The “inhibition zone (IZ)” value (Nannizzia gypsea [4]) was “inactive”, the zone of inhibition at 100 ppm (Staphylococcus aureus [5]) was 12 mm and the zone of inhibition at 100 ppm (Streptococcus [6]) was 12 mm. The zone of inhibition at 200 ppm (Nannizzia gypsea [7]) was 12 mm, the zone of inhibition at 200 ppm (Salmonella typhi [8]) was 12 mm and the zone of inhibition at 200 ppm (Escherichia coli [9]) was 17 mm. The zone of inhibition at 500 ppm (Streptococcus [10]) was 22 mm, the zone of inhibition at 200 ppm (Vibrio cholerae [11]) was 17 mm and the zone of inhibition at 500 ppm (Mucor [12]) was 17 mm. The zone of inhibition at 200 ppm (Shigella flexneri [13]) was 17 mm, the “inhibition zone (IZ)” value (Shigella flexneri [14]) was “inactive” and the zone of inhibition at 500 ppm (Vibrio cholerae [15]) was 17 mm. For the same compound, the “inhibition zone (IZ)” value (Rhizopus [16]) was “inactive”, the zone of inhibition at 200 ppm (Pseudomonas [17]) was 22 mm and the “inhibition zone (IZ)” value (Salmonella typhi [18]) was “inactive”. It also gave a zone of inhibition at 200 ppm (Aspergillus flavus [19]) of 17 mm, a zone of inhibition at 200 ppm (Staphylococcus aureus [20]) of 17 mm and a zone of inhibition at 500 ppm (Salmonella typhi [21]) of 17 mm. It also gave a zone of inhibition at 500 ppm (Nannizzia gypsea [22]) of 17 mm, a zone of inhibition at 500 ppm (Staphylococcus aureus [23]) of 22 mm and a zone of inhibition at 200 ppm (Klebsiella pneumoniae [24]) of 12 mm. For the same compound, the zone of inhibition at 200 ppm (Mucor [25]) was 12 mm, the “inhibition zone (IZ)” value (Escherichia coli [26]) was “inactive” and the zone of inhibition at 200 ppm (Rhizopus [27]) was 12 mm. For the same compound, the zone of inhibition at 500 ppm (Klebsiella pneumoniae [28]) was 22 mm, the “inhibition zone (IZ)” value (Vibrio cholerae [29]) was “inactive” and the zone of inhibition at 100 ppm (Pseudomonas [30]) was 17 mm. For the same compound, the zone of inhibition at 500 ppm (Pseudomonas [31]) was 30 mm, the zone of inhibition at 500 ppm (Shigella flexneri [32]) was 22 mm and the “inhibition zone (IZ)” value (Mucor [33]) was “inactive”. It also gave a zone of inhibition at 500 ppm (Escherichia coli [34]) of 17 mm, a zone of inhibition at 100 ppm (Aspergillus flavus [35]) of 12 mm and a zone of inhibition at 100 ppm (Klebsiella pneumoniae [36]; read-out: IZ) of 12 mm.
